From US12157746B2, “Tetrahydro-1H-pyrazino[2,1-a]isoindolylquinoline compounds for the treatment of autoimmune disease” (F. HOFFMANN-LA ROCHE AG, priority 2018, dated 2024)
≈ marks a conversion by molar mass, not a printed value.

Experiments:
[1] = molecular target: T1, hERG K+ channel (Homo sapiens, UniProt Q12809); experiment: hERG channel inhibition assay; format: cell-based; conditions: patch-clamp (voltage-clamp, whole-cell); for IC50: CHO cells expressing hERG; for IC20: human, CHO cells stably expressing hERG
T1 construct: expressed in transfected cells; host or cells: CHO (Chinese hamster ovary) cells, CHOhERG
T1 sequence (Q12809 whole entry): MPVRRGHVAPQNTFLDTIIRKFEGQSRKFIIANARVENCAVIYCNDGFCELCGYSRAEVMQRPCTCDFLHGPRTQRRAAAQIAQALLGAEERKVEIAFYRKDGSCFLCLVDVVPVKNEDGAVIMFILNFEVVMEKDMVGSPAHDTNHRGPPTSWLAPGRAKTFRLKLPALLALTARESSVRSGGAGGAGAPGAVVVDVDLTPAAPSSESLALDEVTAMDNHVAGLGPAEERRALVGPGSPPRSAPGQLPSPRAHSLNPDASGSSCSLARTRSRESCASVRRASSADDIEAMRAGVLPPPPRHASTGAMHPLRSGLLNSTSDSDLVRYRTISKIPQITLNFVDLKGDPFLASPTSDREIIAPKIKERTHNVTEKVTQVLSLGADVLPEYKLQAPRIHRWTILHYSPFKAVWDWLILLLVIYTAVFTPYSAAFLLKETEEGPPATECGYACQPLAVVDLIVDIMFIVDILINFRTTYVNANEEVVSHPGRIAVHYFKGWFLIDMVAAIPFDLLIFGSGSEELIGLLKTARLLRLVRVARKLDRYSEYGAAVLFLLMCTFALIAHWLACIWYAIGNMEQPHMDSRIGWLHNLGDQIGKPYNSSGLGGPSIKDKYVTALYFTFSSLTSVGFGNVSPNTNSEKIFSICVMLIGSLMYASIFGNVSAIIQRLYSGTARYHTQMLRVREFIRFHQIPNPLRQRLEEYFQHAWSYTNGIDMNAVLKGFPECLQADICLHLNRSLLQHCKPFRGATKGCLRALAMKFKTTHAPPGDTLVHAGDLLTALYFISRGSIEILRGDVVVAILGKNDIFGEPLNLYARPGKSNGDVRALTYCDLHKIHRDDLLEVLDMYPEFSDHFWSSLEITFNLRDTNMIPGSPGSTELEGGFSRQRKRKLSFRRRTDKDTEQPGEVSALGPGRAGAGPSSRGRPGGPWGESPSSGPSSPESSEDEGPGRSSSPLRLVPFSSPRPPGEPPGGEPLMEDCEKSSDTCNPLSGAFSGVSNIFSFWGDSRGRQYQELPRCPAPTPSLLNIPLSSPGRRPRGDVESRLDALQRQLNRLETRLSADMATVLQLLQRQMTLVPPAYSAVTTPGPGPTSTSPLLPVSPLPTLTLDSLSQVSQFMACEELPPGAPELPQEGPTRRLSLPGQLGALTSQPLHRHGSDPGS
Description: hERG Channel Inhibition Assay
The hERG K^+ channels were cloned in humans and stably expressed in a CHO (Chinese hamster ovary) cell line. CHOhERG cells were used for patch-clamp (voltage-clamp, whole-cell) experiments. Cells were stimulated by a voltage pattern to activate hERG channels and conduct IKhERG currents (rapid delayed outward rectifier potassium current of the hERG channel). After the cells were stabilized for a few minutes, the amplitude and kinetics of IKhERG were recorded at a stimulation frequency of 0.1 Hz (6 bpm). Thereafter, the test compound was added to the preparation at increasing concentrations. For each concentration, an attempt was made to reach a steady-state effect, usually, this was achieved within 3-10 min at which time the next highest concentration was applied. The amplitude and kinetics of IKhERG are recorded in each concentration of the drug which were compared to the control values (taken as 100%). (references: Redfem W S, Carlsson L, Davis A S, Lynch W G, MacKenzie I, Palethorpe S, Siegl P K, Strang I, Sullivan A T, Wallis R, Camm A J, Hammond T G. 2003; Relationships between preclinical cardiac electrophysiology, clinical QT interval prolongation and torsade de pointes for a broad range of drugs: evidence for a provisional safety margin in drug development. Cardiovasc. Res. 58:32-45, Sanguinetti M C, Tristani-Firouzi M. 2006; hERG potassium channels and cardiac arrhythmia. Nature 440:463-469, Webster R, Leishman D, Walker D. 2002; Towards a drug concentration effect relationship for QT prolongation and torsades de pointes. Curr. Opin. Drug Discov. Devel. 5:116-26).

[2] = system: Balb/c 3T3 mouse fibroblasts; experiment: 3T3 in vitro phototoxicity assay; format: cell-based; conditions: Neutral Red uptake; for Phototoxicity factor: Factor=IC50(−UV)/IC50(+UV), cut-off factor >5; for IC50: Mus musculus, BALB/c3T3, light or radiation study, with approx. 5 J/cm2 UVA light
From the text: 3T3 In Vitro Phototoxicity Assay
Phototoxicity is defined as a toxic response that is elicited after the first exposure of the skin to certain chemicals and subsequent exposure to light, or that is induced similarly by skin irradiation after systemic administration of a chemical substance. The assay used in this study is designed to detect the phototoxic potential of a chemical by using a simple in vitro cytotoxicity assay with Balb/c 3T3 mouse fibroblasts. The principle of this test is a comparison of the cytotoxicity of a chemical when tested with and without exposure to a non-toxic dose of UVA-light. Cytotoxicity is expressed as a dose dependent reduction of the growth rate of cells as determined by uptake of the vital dye Neutral Red one day after treatment.
A small amount of substance was weighed and formulated freshly in DMSO just before the start of the exposure of the cells. This stock solution or appropriate dilutions with DMSO were added to the cell suspensions to obtain the required final concentrations. All solutions were generally prepared in Eppendorf caps and discarded after use.
For this study the Neutral Red uptake (NRU) assay of Borenfreund and Puemer (Borenfreund, E, Puemer J A. Toxicity determined in vitro by morphological alterations and Neutral Red absorption. Toxicology Lett. 1985; 24:119-124) modified according to INVITTOX protocol No 78 (ERGATT/FRAME data bank of in vitro techniques in toxicology. INVITTOX PROTOCOL No 78. 3T3 NRU Phototoxicity Assay. March 1994) has been adapted to examine a possible phototoxic potential of the test item. This assay is based on the active uptake of the Neutral Red dye into the lysosomes of cultured murine fibroblasts. Because lysosomal membranes are known to be a site of action of many phototoxic compounds, this assay can provide a measure of potential for phototoxic injury.
A murine fibroblasts clone A 31 (ATCC no. CCL 163—passage No. 108) were cultured in 175 cm2 tissue culture grade flasks, containing sDMEM (Dulbecco's Minimal Essential Medium, supplemented with 10% fetal calf serum, 2 mM L-glutamine, 100 units/ml Penicillin and 100 μg/ml streptomycin) at 37° C. in a humidified atmosphere of 6% C02. Before cells approach confluence they were removed from flasks by trypsinisation. Prior to use in an assay, the cells were transferred to 96-well microtiter plates at a concentration of 1×10^4 cells/well in 100 μl volumes of sDMEM and allowed to attach for 24 h.
For incubation with murine fibroblasts, the test item was diluted in PBS/3% DMSO (detailed concentrations see in results).
Culture medium (Dulbecco's Modified Eagle Medium (DMEM), GlutaMAX (Gibco Ref 21885-025), 10% Fetal Bovine Serum (FBS) (Gibco Ref 10270-106), 100 IU/ml Penicillin and 100 μg/ml Streptomycin (Gibco Ref 15140-122)) was removed from the wells and murine fibroblasts were washed with PBS. Afterwards 100 μL of PBS/3% DMSO containing the test item was added and target cells were incubated for 1 h at 37° C. with 6% CO2.
For each test item the microtiter plates were prepared according to Table 4. “UVA plates” were exposed to approx. 5 J/cm2 UVA light, the “Dark plates” were kept in the dark and served as cytotoxicity control. Plates with chlorpromazine hydrochloride served as positive control. UV flux was measured with a UV-meter (Dr. Gröbel RM21).
Following UV irradiation, the test item was removed from the wells (one washing step with PBS) and replaced with sDMEM. Target cells were then incubated overnight at 37° C. in 6% CO2.
Each plate contained wells with cells and solvent but without test item which were either not incubated with Neutral Red solution (0% standard—S1) or were stained with Neutral Red (100% standard—S2) for calculation of the standard cell viability curve. Wells labeled with U01-U08 contained the different test item concentrations.
After the incubation the wells to be assayed were filled with 100 μL of the sDMEM containing Neutral Red. […]

With `C[C@@H]1CN(c2ccc(C#N)c3ncccc23)C[C@@H]2c3ccc(N4CC(C)(N)C4)cc3CN12` [Example 39, 5-[(4R,10bS)-8-(3-amino-3-methyl-azetidin-1-yl)-4-methyl-3,4,6,10b-tetrahydro-1H-pyrazino[2,1-a]isoindol-2-yl]quinoline-8-carbonitrile] the IC50 [1] was over 20 µM, the IC20 [1] was over 10 µM and the Phototoxicity factor [2] was 1.00. For the same compound, the IC50 [2] was over 100 µg/mL.
`C[C@@H]1CN(c2ccc(C#N)c3ncccc23)C[C@@H]2c3ccc(N[C@H]4CNC[C@H]4F)cc3CN12` [Example 30, 5-[(4R,10bS)-8-[[(3S,4R)-4-fluoropyrrolidin-3-yl]amino]-4-methyl-3,4,6,10b-tetrahydro-1H-pyrazino[2,1-a]isoindol-2-yl]quinoline-8-carbonitrile] showed a Phototoxicity factor [2] of over 1.9 and an IC50 [2] of 54.6 µg/mL (≈ 123 µM).
`CO[C@@H]1CN(c2ccc3c(c2)CN2[C@H](C)CN(c4ccc(C#N)n5nccc45)C[C@H]32)C[C@H]1N` [Example 94, 4-[(4R,10bS)-8-[(3R,4R)-3-amino-4-methoxy-pyrrolidin-1-yl]-4-methyl-3,4,6,10b-tetrahydro-1H-pyrazino[2,1-a]isoindol-2-yl]pyrazolo[1,5-a]pyridine-7-carbonitrile] gave an IC50 [1] of over 20 µM, an IC20 [1] of over 10 µM and a Phototoxicity factor [2] of 1.99. For the same compound, the IC50 [2] was 39 µg/mL (≈ 87.9 µM).
In the case of `C[C@@H]1CN(c2ccc(C#N)c3ncccc23)C[C@@H]2c3ccc(N4CCOC[C@@H](N)C4)cc3CN12` [Example 54B, 5-[(4R,10bS)-8-[(6S)-6-amino-1,4-oxazepan-4-yl]-4-methyl-3,4,6,10b-tetrahydro-1H-pyrazino[2,1-a]isoindol-2-yl]quinoline-8-carbonitrile], the IC50 [1] is reported as over 20 µM, the IC20 [1] is reported as over 10 µM and the Phototoxicity factor [2] is reported as 1.00. The IC50 [2] was over 100 µg/mL.
Work on `C[C@@H]1CN(c2ccc(C#N)c3ncccc23)C[C@@H]2c3ccc(N4CC5CNCC(C4)O5)cc3CN12` [Example 14, 5-[(4R,10bS)-4-methyl-8-(9-oxa-3,7-diazabicyclo[3.3.1]nonan-3-yl)-3,4,6,10b-tetrahydro-1H-pyrazino[2,1-a]isoindol-2-yl]quinoline-8-carbonitrile] yielded an IC50 [1] of over 20 µM, an IC20 [1] of over 10 µM and a Phototoxicity factor [2] of 1.00. It also gave an IC50 [2] of over 100 µg/mL.
